Here are results for nine compounds from PubChem BioAssay (NCI).

Among the test systems are HCC-2998 colon; NCI-H226 lung; NCI-H460 lung; NCI/ADR-RES ovarian; PC-3 prostate; RPMI-8226 leukemia; SF-295 CNS; SK-MEL-28 melanoma; U251 CNS; UACC-62 melanoma.
Assay in all cases: inhibition of tumour cell growth, NCI panel, 48 h

The structures appear in SMILES notation.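 Tested at 5 concentrations; 48 h exposure; 96-well plates; endpoints linearly interpolated, else capped at highest concentration. Abbreviation: GI50, concentration required for 50% inhibition of growth. The concentration for full growth arrest is given as TGI.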

In the case of `O=C1c2ccccc2C(=O)c2sc(Nc3cccc(Cl)c3)nc21`, the TGI in the experiment on HCC-2998 colon amounted to 5.3 µM; in the experiment on NCI-H226 lung, 6.25 µM; in the experiment with NCI-H460 lung it was 4.25 µM; with NCI/ADR-RES ovarian, 4.78 µM; in the experiment on PC-3 prostate, 6.75 µM; with RPMI-8226 leukemia, 4.07 µM. Besides, the TGI stood at 3.09 µM with SF-295 CNS, 3.34 µM with SK-MEL-28 melanoma, 2.97 µM in the experiment on U251 CNS and 3.25 µM in the experiment with UACC-62 melanoma. Moreover, the values for the GI50 with NCI/ADR-RES ovarian and in the experiment with PC-3 prostate were 2.01 µM and 1.89 µM, respectively.

`O=c1cc(-c2cccc(O)c2)[nH]c2cc3c(cc12)OCO3`: the TGI in the experiment on HCC-2998 colon was above 100 µM; in the experiment on NCI-H226 lung, 23.8 µM; in the experiment with NCI-H460 lung, above 100 µM; in the experiment with NCI/ADR-RES ovarian it was 4 µM; with PC-3 prostate it was above 100 µM; in the experiment on RPMI-8226 leukemia, above 100 µM. Further, the TGI in the experiment on SF-295 CNS is above 100 µM; in the experiment with SK-MEL-28 melanoma, 83.5 µM; with U251 CNS it was above 36.5 µM; with UACC-62 melanoma, 8.67 µM.

Take `COc1cc(C(=O)/C=C/c2sc(Cl)nc2Cl)cc(OC)c1OC`: the GI50 in the experiment on HCC-2998 colon is 1.8 µM; with NCI-H226 lung it was 2.4 µM; in the experiment with NCI-H460 lung it was 2.29 µM; in the experiment with NCI/ADR-RES ovarian, 1.97 µM; in the experiment with PC-3 prostate, 1.8 µM; with RPMI-8226 leukemia it was 1.69 µM. Moreover, the GI50 in the experiment with SF-295 CNS was 2.09 µM; in the experiment on SK-MEL-28 melanoma it was 1.78 µM; in the experiment on U251 CNS, 1.88 µM; in the experiment on UACC-62 melanoma, 1.86 µM. Besides, the TGI in the experiment on HCC-2998 colon was 3.31 µM; in the experiment on NCI-H226 lung it was 6.31 µM; with NCI-H460 lung, 5.29 µM; in the experiment with NCI/ADR-RES ovarian, 4.07 µM; in the experiment with PC-3 prostate it was 3.7 µM; in the experiment on RPMI-8226 leukemia, 4.57 µM. Besides, the TGI in the experiment with SF-295 CNS stood at 4.71 µM; with SK-MEL-28 melanoma it was 3.27 µM; with U251 CNS, 3.69 µM; in the experiment with UACC-62 melanoma, 3.61 µM.

As to `Cc1nc2c(nc1C)C(=O)c1ccccc1C2=O`, the TGI in the experiment with HCC-2998 colon was found to be 15 µM; with NCI-H226 lung, 13.3 µM; in the experiment with NCI-H460 lung, 3.2 µM; in the experiment on NCI/ADR-RES ovarian it was 17.1 µM; with PC-3 prostate, 30.3 µM; in the experiment on RPMI-8226 leukemia, 45.9 µM. The TGI in the experiment with SF-295 CNS is 4.38 µM; in the experiment on SK-MEL-28 melanoma it was 4.76 µM; with U251 CNS it was 34.6 µM; with UACC-62 melanoma, 2.42 µM.

`CCc1ccc2c(c1)C(=O)c1c-2n(CCCBr)c(=O)c2cc([N+](=O)[O-])ccc12`: the GI50 was above 50 µM with HCC-2998 colon; 27.7 µM with NCI-H226 lung; above 50 µM in the experiment on NCI-H460 lung; above 50 µM with NCI/ADR-RES ovarian; above 50 µM with PC-3 prostate; above 50 µM with RPMI-8226 leukemia. Moreover, the GI50 in the experiment on SF-295 CNS was 36.5 µM; in the experiment on SK-MEL-28 melanoma, above 50 µM; with U251 CNS, 26 µM; in the experiment with UACC-62 melanoma it was 32.2 µM. In addition, the TGI in the experiment with HCC-2998 colon, with NCI-H226 lung, in the experiment with NCI-H460 lung, in the experiment with NCI/ADR-RES ovarian, in the experiment with PC-3 prostate and in the experiment with RPMI-8226 leukemia was above 50 µM in each case. In addition, the TGI in the experiment with SF-295 CNS, in the experiment on SK-MEL-28 melanoma, in the experiment on U251 CNS and in the experiment with UACC-62 melanoma was above 50 µM in each case.

`COc1cc2nc(C)nc(N[C@H](C)c3cc(N)cc(C(F)(F)F)c3)c2cc1O[C@H]1CCOC1`: the GI50 in the experiment with HCC-2998 colon was 17 µM; in the experiment on NCI-H226 lung, 16.9 µM; in the experiment with NCI-H460 lung it was 18.5 µM; in the experiment with NCI/ADR-RES ovarian, 18.3 µM; in the experiment with PC-3 prostate, 10.4 µM; in the experiment with RPMI-8226 leukemia it was 11 µM. For the same compound, the GI50 is 11.6 µM in the experiment on SF-295 CNS, 16 µM in the experiment with SK-MEL-28 melanoma, 10.6 µM with U251 CNS and 16.3 µM in the experiment with UACC-62 melanoma. The TGI amounted to 33.2 µM with HCC-2998 colon; 38.8 µM in the experiment with NCI-H226 lung; 36.6 µM with NCI-H460 lung; 60.9 µM with NCI/ADR-RES ovarian; 23.4 µM in the experiment with PC-3 prostate; 47.9 µM with RPMI-8226 leukemia. Further, the TGI in the experiment on SF-295 CNS was found to be 24.8 µM; in the experiment on SK-MEL-28 melanoma, 29.6 µM; in the experiment on U251 CNS, 23.7 µM; in the experiment on UACC-62 melanoma, 31 µM.

As for `CCOC(=O)Nc1nc2ccc(OCC)cc2s1`, the GI50 with HCC-2998 colon was 31.6 µM; in the experiment with NCI-H226 lung, above 100 µM; in the experiment with NCI-H460 lung, 6.28 µM; in the experiment on NCI/ADR-RES ovarian, 7.39 µM; in the experiment with PC-3 prostate, above 100 µM; in the experiment on RPMI-8226 leukemia, 27.1 µM. Further, the GI50 in the experiment on SF-295 CNS was above 100 µM; in the experiment on SK-MEL-28 melanoma, above 60.7 µM; in the experiment on U251 CNS it was 25.5 µM; in the experiment with UACC-62 melanoma, 13.4 µM. In addition, the TGI in the experiment on HCC-2998 colon, in the experiment on NCI-H226 lung, with NCI-H460 lung, in the experiment with NCI/ADR-RES ovarian, in the experiment on PC-3 prostate and in the experiment on RPMI-8226 leukemia was above 100 µM throughout. The TGI with SF-295 CNS, with SK-MEL-28 melanoma, in the experiment with U251 CNS and in the experiment with UACC-62 melanoma was above 100 µM in each case.

With `CC1=C(C(=O)Nc2ccc(F)c(Cl)c2)C(c2ccc(Cl)cc2)NC(=O)N1` (configuration not stated), the GI50 in the experiment with HCC-2998 colon was 14.6 µM; with NCI-H226 lung, 15.5 µM; with NCI-H460 lung, 17.5 µM; in the experiment with NCI/ADR-RES ovarian it was 25.4 µM; with PC-3 prostate it was 15.1 µM; in the experiment with RPMI-8226 leukemia, 13.6 µM. For the same compound, the GI50 in the experiment with SF-295 CNS was 32.5 µM; in the experiment on SK-MEL-28 melanoma, 16.5 µM; with U251 CNS it was 16.7 µM; with UACC-62 melanoma, 14.1 µM. Also, the TGI with HCC-2998 colon worked out at 27.7 µM; with NCI-H226 lung it was 38.6 µM; with NCI-H460 lung it was 37.3 µM; in the experiment with NCI/ADR-RES ovarian it was 75.2 µM; in the experiment on PC-3 prostate, 31.9 µM; in the experiment on RPMI-8226 leukemia, 36.3 µM. In addition, the TGI is above 100 µM with SF-295 CNS, 32.6 µM with SK-MEL-28 melanoma, 33.2 µM in the experiment with U251 CNS and 27.2 µM with UACC-62 melanoma.

As to `COc1cc2c(c(OC)c1O)C(=O)C(OC)C(c1ccc(O)c(O)c1)O2` (configuration not stated), the GI50 was 0.645 µM in the experiment on HCC-2998 colon; 4.8 µM with NCI-H226 lung; 0.364 µM with NCI-H460 lung; 0.203 µM with NCI/ADR-RES ovarian; 0.599 µM in the experiment with PC-3 prostate; 0.285 µM with RPMI-8226 leukemia. Also, the GI50 in the experiment on SF-295 CNS is 0.471 µM; in the experiment on SK-MEL-28 melanoma, 10.1 µM; in the experiment on U251 CNS, 0.418 µM; in the experiment with UACC-62 melanoma it was 0.345 µM. Also, the TGI in the experiment with HCC-2998 colon was above 100 µM; with NCI-H226 lung it was above 100 µM; in the experiment with NCI-H460 lung, above 100 µM; in the experiment with NCI/ADR-RES ovarian it was above 100 µM; in the experiment with PC-3 prostate, above 50.6 µM; with RPMI-8226 leukemia, 12.9 µM. The TGI with SF-295 CNS is 4.95 µM; in the experiment with SK-MEL-28 melanoma it was above 100 µM; in the experiment with U251 CNS, above 100 µM; with UACC-62 melanoma, above 100 µM.
